{
  "source": "patent US20220257722A1",
  "about": "“COMPOSITIONS AND METHODS OF TREATING AND PREVENTING SYSTEMIC COMPLICATIONS OF ACUTE ILLNESS” (United States Government As Represented By The Department …, priority 2019, published 2022)",
  "tested_on": "rat small intestine",
  "assay": "LPS-induced small intestinal FD4 paracellular permeability in vivo (PV and arterial FD4)",
  "conditions": "for TDG-induced inhibitory effect on PV FD4 levels: LPS 6 hr + TDG 6 hr; for TDG-induced inhibitory effect on PV FD4 levels / Arterial FD4 levels in LPS 6 hr + TDG 6 hr rats: inhibitor iv at t=-10 min or co-perfused; for Arterial FD4 levels in LPS 6 hr + TDG 6 hr rats: t=90 min",
  "method": "LPS treatment. Animals were treated with LPS (5 mg/kg, ip) once at 9 am. For the acute experiments, the animals were fasted overnight and were treated with LPS 1, 3, or 6 hr before the anesthesia for small intestinal perfusion of FD4 as described herein. For the 24-hr experiments, the animals fed ad libitum were treated with LPS 24 hr before anesthesia induction used for the perfusion study. As a control, saline was injected ip at the corresponding time before the experiments. The animal groups were expressed as control, LPS 1 hr, LPS 3 hr, LPS 6 hr, and LPS 24 hr.\nSmall intestinal perfusion. The small intestinal perfusion from the duodenum, and portal vein (PV) cannulation were prepared by the modified methods. Under isoflurane anesthesia (2%), the animal was placed […] on a recirculating heating block system (Summit Medical Systems, Bend, Oreg., USA) in order to maintain body temperature at 36-37° C. Prewarmed saline was infused via the right femoral vein at 1.08 ml/h using a Harvard infusion pump (Harvard Apparatus, Holliston, Mass., USA). The abdomen was incised, and the PV was cannulated with a polyethylene (PE)-50 tube attached with 23G needle and fixed by methylacrylate adhesive at the insertion site. The tube was filled with heparinized saline enabling repeated blood sampling. Samples of 0.2 ml PV blood were collected every 15 min, followed by flushing with 0.2 ml heparinized saline. A polyethylene tube (diameter 5 mm) filled with PBS was inserted through the forestomach and tied at 0.5 cm caudal from the pyloric ring. After bolus perfusion of 2-ml phosphate buffer saline (PBS, 10 mM, pH 7.4) into the duodenum from the tube, followed by stabilization for ˜30 min, the time was set as t=0. FD4 (0.1 mM) in 10-ml PBS was slowly perfused at t=0 min for 30 sec. Blood samples were collected into a 0.5-ml tubes containing 1-μl each of EDTA (0.5 M) and the dipeptidyl peptidase-4 (DPP4) inhibitor NVP-728 (1 mM), and immediately centrifuged at 5,000× g for 5 min, after which the plasma was stored on ice or at −80 ° C. until use. At 90 min, after collection of PV samples, arterial blood was taken from abdominal aorta, followed by euthanasia by thoracotomy.\nAppearance of FD4 into the PV and arterial plasma was assessed by fluorescence intensity measurement using a multi-mode microplate reader (Synergy-2, BioTek Instruments, Inc., Winooski, VT, USA). Fluorescence intensity in t=0 sample as background was subtracted from the fluorescence values measured in other time point samples. FD4 content was calculated according to the standard curve generated each time of measurement.\nDrug treatment for the intestinal perfusion study. The following drugs were administered at the time after LPS treatment: the GLP2R partial agonist/antagonist GLP-2(3-33) (1 mg/kg; 280 nmol/kg, ip) was given immediately after LPS treatment (0 hr after LPS treatment); GLP-2 (380 μg/kg; 100 nmol/kg, ip) was given 6 hr after LPS treatment; a stable GLP-2 analog TDG (50 μg/kg; 13.3 nmol/kg) was ip injected 0, 3, 6, or 12 hr after LPS treatment or iv injected at t=0 min just before the perfusion of FD4 solution (6 or 24 hr after LPS treatment). In acute experiments, TDG was iv injected at t=0 min (6 hr after LPS treatment) with or without the pretreatment of the selective IGF1 receptor (IGF1R) tyrosine kinase inhibitor AEW541 (0.1 mg/kg, iv), the selective EGF receptor (EGFR) tyrosine kinase inhibitor PD153035 (10 μg/kg, iv) or PG97-269 (1 mg/kg, iv) at t=−10 min, or the co-perfusion of L-NAME (0.1 mM, pf) with FD4 solution.",
  "data": [
    {"molecule": "[Ac-His^1, D-Phe^2, Lys^15, Arg^16, Leu^27]-VIP(1-7)-GRF(8-27) (HFDAVFTNSYRKVLKRLSARKLLQDIL; HELM PEPTIDE1{[ac].H.[dF].D.A.V.F.T.N.S.Y.R.K.V.L.K.R.L.S.A.R.K.L.L.Q.D.I.L.[am]}$$$$V2.0; SMILES CC[C@H](C)[C@H](NC(=O)[C@H](CC(=O)O)NC(=O)[C@H](CCC(N)=O)NC(=O)[C@H](CC(C)C)NC(=O)[C@H](CC(C)C)NC(=O)[C@H](CCCCN)NC(=O)[C@H](CCCNC(=N)N)NC(=O)[C@H](C)NC(=O)[C@H](CO)NC(=O)[C@H](CC(C)C)NC(=O)[C@H](CCCNC(=N)N)NC(=O)[C@H](CCCCN)NC(=O)[C@H](CC(C)C)NC(=O)[C@@H](NC(=O)[C@H](CCCCN)NC(=O)[C@H](CCCNC(=N)N)NC(=O)[C@H](Cc1ccc(O)cc1)NC(=O)[C@H](CO)NC(=O)[C@H](CC(N)=O)NC(=O)[C@@H](NC(=O)[C@H](Cc1ccccc1)NC(=O)[C@@H](NC(=O)[C@H](C)NC(=O)[C@H](CC(=O)O)NC(=O)[C@@H](Cc1ccccc1)NC(=O)[C@H](Cc1c[nH]cn1)NC(C)=O)C(C)C)[C@@H](C)O)C(C)C)C(=O)N[C@@H](CC(C)C)C(N)=O) [PG97-269]", "values": [
      {"measurement": "TDG-induced inhibitory effect on PV FD4 levels", "result": "reversed"},
      {"measurement": "Arterial FD4 levels in LPS 6 hr + TDG 6 hr rats", "result": "reduced"}
    ]},
    {"molecule": "CC[C@H](C)[C@H](NC(=O)[C@H](Cc1ccccc1)NC(=O)[C@H](CC(=O)O)NC(=O)[C@H](CCCNC(=N)N)NC(=O)[C@H](C)NC(=O)[C@H](C)NC(=O)[C@H](CC(C)C)NC(=O)[C@H](CC(N)=O)NC(=O)[C@H](CC(=O)O)NC(=O)[C@H](CC(C)C)NC(=O)[C@@H](NC(=O)[C@@H](NC(=O)[C@H](CC(N)=O)NC(=O)[C@H](CCSC)NC(=O)[C@H](CCC(=O)O)NC(=O)[C@H](CC(=O)O)NC(=O)[C@H](CO)NC(=O)[C@H](Cc1ccccc1)NC(=O)[C@H](CO)NC(=O)CNC(=O)[C@H](CC(=O)O)NC(=O)CNC(=O)[C@@H](N)Cc1c[nH]cn1)[C@@H](C)O)[C@@H](C)CC)C(=O)N[C@@H](CC(N)=O)C(=O)N[C@@H](Cc1c[nH]c2ccccc12)C(=O)N[C@@H](CC(C)C)C(=O)N[C@H](C(=O)N[C@@H](CCC(N)=O)C(=O)N[C@H](C(=O)N[C@@H](CCCCN)C(=O)N[C@H](C(=O)N[C@H](C(=O)N[C@@H](CC(=O)O)C(=O)O)[C@@H](C)O)[C@@H](C)CC)[C@@H](C)O)[C@@H](C)CC", "note": "[TDG]", "values": [
      {"measurement": "PV FD4 levels", "setting": "LPS 6 hr model, TDG 50 μg/kg ip 3 hr after LPS", "result": "reduced"},
      {"measurement": "PV FD4 levels", "setting": "LPS 6 hr model, TDG 50 μg/kg iv 6 hr after LPS (t=0 min)", "result": "reduced"},
      {"measurement": "arterial FD4 levels", "setting": "LPS 24 hr model, TDG 0 hr after LPS", "result": "no significant effect"},
      {"measurement": "PV FD4 levels", "setting": "LPS 24 hr model, TDG 50 μg/kg ip 0 hr after LPS", "result": "little effect"},
      {"measurement": "PV FD4 levels", "setting": "LPS 24 hr model, TDG 50 μg/kg ip 6 hr after LPS", "result": "reduced"},
      {"measurement": "PV FD4 levels", "setting": "LPS 24 hr model, TDG 50 μg/kg ip 12 hr after LPS", "result": "reduced"},
      {"measurement": "PV FD4 levels", "setting": "LPS 24 hr model, TDG 50 μg/kg iv 24 hr after LPS", "result": "little effect"},
      {"measurement": "arterial FD4 levels", "setting": "LPS 24 hr model, TDG 6 hr after LPS", "result": "inhibited"},
      {"measurement": "arterial FD4 levels", "setting": "LPS 24 hr model, TDG 12 hr after LPS", "result": "inhibited"},
      {"measurement": "arterial FD4 levels", "setting": "LPS 24 hr model, TDG 24 hr after LPS", "result": "no significant effect"}
    ]},
    {"molecule": "COC(=O)[C@@H](N)CCCNC(=N)N[N+](=O)[O-]", "note": "[L-NAME, Nω-nitro-L-arginine methyl ester]", "values": [
      {"measurement": "LPS-induced increases in PV FD4 levels at 6 hr", "setting": "L-NAME 0.1 mM alone co-perfused with FD4, no TDG", "result": "no effect"},
      {"measurement": "TDG-induced inhibitory effect on PV FD4 levels", "result": "reversed"},
      {"measurement": "Arterial FD4 levels in LPS 6 hr + TDG 6 hr rats", "result": "reduced"}
    ]}
  ]
}
